Consider five compounds from US8435957B2, “Use of lignan compound for anti-wrinkle treatment” (Biocare Co., Ltd., priority 2007, dated 2013).

The test system of assay [1] is matrix metalloproteinase-1 (MMP-1). Put plainly: Western blot of matrix metalloproteinase-1 (MMP-1) expression in fibroblasts radiated with UV light. Type of assay: cell-based, human. Particulars: for inhibition of expression of matrix metalloproteinase-1: UV 20 J/cm^2, given as 'higher than the negative control'; for expression of matrix metalloproteinase-1, result in words: 3, 5 and 10 μM, versus UV 20 J/cm^2 positive control, FIG. 3, FIG. 4; for inhibition at 3 µM / inhibition at 5 µM / inhibition at 10 µM: Homo sapiens, Fibroblast, light or radiation study, compared with UV 20 J/cm^2 treated positive control group, read-out: matrix metalloproteinase-1 (MMP-1) inhibitory activity effect. As to the method: Fibroblasts were cultured in a 60-mm dish at a concentration of 2×10^5 cells/ml to a confluence of about 85%. Before UV radiation, the medium was removed, and the cells were washed with PBS to remove a serum component therefrom, and then radiated with UV light at a dose of 20 J/cm^2. After the fibroblast cells were radiated with UV light, the cells were treated with each of the samples and cultured with serum free DMEM for 48 hours.
In order to measure the expression levels of matrix metalloproteinase-1 (MMP-1), Western blot was used, and the amount of total protein in the medium containing the fibroblasts cultured therein was quantified using the Bradford method.
The extracted protein was electrophoresed on 10% SDS-polyacrylamide gel, and then transferred to a nitrocellulose membrane. The membrane was blocked with 5% skim milk at room temperature for 1 hour in order to prevent it from being contaminated with other unknown proteins. Primary antibody to matrix metalloproteinase-1 was diluted in a blocking solution at a ratio of 1:1000 and allowed to react with the membrane at room temperature for 2 hours. After the primary antibody reaction, the membrane was washed three times with Tris-buffer saline Tween 20 (TBST) with shaking for 10 minutes each time. Secondary antibodies recognizing the primary antibodies to matrix metalloproteinase-1 was diluted in 5% skim milk at a ratio of 1:1000 and allowed to react with the membrane at room temperature for 1 hour. Then, the membrane was washed three times with tris-buffer saline Tween 20 with shaking for 10 minutes each time in the same manner as in the case of the primary antibody reaction, and then was developed by chemiluminescence.

Another assay deals with human normal fibroblasts. Put plainly: MTT assay, cell proliferation effect in fibroblasts. Type of assay: cell-based. Particulars: 48 h serum-free culture, untreated medium as control. Here is the method: In order to examine a cell proliferation effect proving the effect of reducing skin wrinkles, an MTT assay (3-(4,5-dimethylthiazol-2-yl)-2,5-diphenyl tetrazolium bromide reduction method) was carried out using fibroblasts.
First, human normal fibroblasts were plated into a 96-well plate at a concentration of 2×10^5 cells/well and primarily cultured in 10% FBS (fetal bovine serum)-containing DMEM medium in conditions of 37° C. and 5% CO2 for 24 hours. After the primary culture, the cells were treated with varying concentrations of the inventive sample. Then, the medium was replaced with a serum-free medium, and the cells were secondarily cultured for 48 hours. After the secondary culture step, 100 μl of MTT solution was added to the medium. Then, the resulting solution was left to stand for 4 hours, and then the medium was removed. 100 μl of dimethyl sulfoxide solution was added to each well and stirred for 20 minutes, and then the absorbance of each well at 540 nm was measured with a microplate reader.
According to the method of Example 2, the cell proliferation effects of 75% methanol extract of the aril of nutmeg and fragrin A and austobailignan 7 which are isolated and purified thereof were measured. In the MTT assay, a culture medium not treated with the sample was used as a control group and measured for absorbance, and the analysis results are shown in Table 3 below.
(Formazan colour is commonly taken as a measure of viable cells.)

The test system of assay [2] is hairless mouse (Skh; HR-1). Put plainly: In vivo anti-wrinkle effect, skin application, skin replica. Particulars: applied to skin: 50 μl of 6% (w/v) nutmeg extract or 20 mM macelignan; versus UV positive group; FIG. 7. Here is the method:
(§1) 6-week hairless mouse (Skh; HR-1) have a quarantine period for 1 week before experiment, and cared maintaining temperature with 23±3° C., relative humidity with 50±5° C., and 12 hours of day/night cycle (07:00-19:00/day time). They were fed with feed for mouse, and tap water. UV irradiations were performed 3 times per week in the same time, the amount of the UV irradiations were 50 mJ/cm^2 on 1st week, 100 mJ/cm^2 on 2nd week, 200 mJ/cm^2 on 3rd week, and 250 mJ/cm^2 on 4th and after 4th weeks. The groups were divided into 4 groups. Those were control, UV control, UV/nutmeg and UV/macelignan.
50 μl of 6% (w/v) of nutmeg extract and 20 mM macelignan solution were applied for the experiment. For the experiment, nutmeg extract and macelignan were disolved in ethanol:polyethylene glycol (7:3, v/v).
In FIG. 7, A is the normal group, B is the UV irradiated group, C is the nutmeg applying group, and D is the macelignan applying group.

Assay [3] has as its system hairless mouse (Skh; HR-1). Kind of assay: In vivo anti-wrinkle effect, oral administration, skin replica. Particulars: oral: 200 mg/kg nutmeg or 20 mg/kg macelignan; versus UV positive group; FIG. 8. Here is the method:
as §1, with “UV/macelignan. 200 mg/kg of nutmeg and 20 mg/kg of macelignan were administered respectively by oral. For the experiment, nutmeg extract and macelignan were disolved in 0.25% CMC (carboxyl methyl celluose) solution.” for “UV/macelignan.”
In FIG. 8, A is the normal group, B is the UV irradiated group, C is the nutmeg administering group, and D is the macelignan administering group.

On to `COc1cc([C@@H]2OC(c3ccc4c(c3)OCO4)[C@@H](C)[C@@H]2C)ccc1O` (some centres unmarked) [austobailignan 7, austrobailignan-7], for which the “inhibition of expression of matrix metalloproteinase-1” value in assay [1] (10 μM) came out at 65%. The “expression of matrix metalloproteinase-1, result in words” value in assay [1] is on record as “inhibited the expression of matrix metalloproteinase-1 with dose-dependent manners”. Also, the figures for the “Proliferation effect (%)” value in the assay with human normal fibroblasts (3 μg/ml), with human normal fibroblasts (5 μg/ml) and in the assay on human normal fibroblasts (10 μg/ml) were 104%, 105% and 110%, respectively.

Take `C=CCc1cc(OC)c(OC(C)Cc2ccc(O)c(OC)c2)c(OC)c1` (centres unmarked) [fragrin A, 2-(4-allyl-2,6-dimethoxyphenoxy)-1-(4-hydroxy-3-methoxyphenyl)-propane]: the “inhibition of expression of matrix metalloproteinase-1” value in assay [1] (10 μM) amounted to 65%. For the same compound, the “expression of matrix metalloproteinase-1, result in words” value in assay [1] is recorded as “inhibited the expression of matrix metalloproteinase-1 with dose-dependent manners”. The “Proliferation effect (%)” value is on record as 101% in the assay on human normal fibroblasts (3 μg/ml), 104% in the assay with human normal fibroblasts (5 μg/ml) and 108% with human normal fibroblasts (10 μg/ml).

`C/C=C/c1cc(OC)c2c(c1)[C@@H](C)C(c1ccc3c(c1)OCO3)O2` (some centres unmarked) [licarin E]: in assay [1], the inhibition at 3 µM was 35% and the inhibition at 5 µM is 47%. Also, the inhibition at 10 µM in assay [1] (10 μM) came to 73%.

Take `COc1cc(C[C@H](C)[C@H](C)Cc2ccc3c(c2)OCO3)ccc1O` [macelignan]: in assay [2], the “effect on reducing wrinkle (skin replica), result in words” value is listed as “inhibited wrinkle”. Further, in assay [1], the inhibition at 3 µM turned out to be 31% and the inhibition at 5 µM turned out to be 42%. For the same compound, in assay [1] (10 μM), the inhibition at 10 µM came to 63%. Further, in assay [3], the “effect on inhibiting wrinkle (skin replica), result in words” value was “inhibited wrinkle”.

In the case of `O=C1O[C@H]([C@@H](O)CO)C(O)=C1O` [vitamin-C, reference compound], the “inhibition of expression of matrix metalloproteinase-1” value in assay [1] (10 μM) and in assay [1] (10 μg/ml) was 20% throughout.
